Data taken from ChEMBL document CHEMBL1156679, “Inhibition of immune complex-mediated neutrophil oxidative metabolism: a pharmacophore model for 3-phenylcoumarin derivatives using GRIND-based 3D-QSAR and 2D-QSAR procedures” (Eur J Med Chem, 2008).

Columns and labels:
Neutrophil [1] = assay: Inhibition of immune complex-stimulated neutrophil oxidative metabolism in New Zealand white rabbit neutrophils assessed as ROS generation at 50 uM after 30 mins by lucigenin enhanced chemiluminescence assay; format: functional; details: Oryctolagus cuniculus, 0.5 h
[2] = Cytotoxicity against New Zealand white rabbit neutrophils assessed as cell viability at 50 uM after 30 mins by trypan blue exclusion test; format: cell-based, Oryctolagus cuniculus, Neutrophil; details: read-out: Activity
Neutrophil [3] = assay: Inhibition of immune complex-stimulated neutrophil oxidative metabolism in New Zealand white rabbit neutrophils assessed as ROS generation after 30 mins by lucigenin enhanced chemiluminescence assay; format: functional, cell-based; details: Oryctolagus cuniculus, 0.5 h
[4] = Cytotoxicity against New Zealand white rabbit neutrophils assessed as LDH release at 50 uM after 30 mins by spectrophotometry; format: cell-based, Oryctolagus cuniculus; details: neutrophil, 0.5 h
Neutrophil [5] = assay: Inhibition of immune complex-stimulated neutrophil oxidative metabolism in New Zealand white rabbit neutrophils assessed as ROS generation after 30 mins by luminol enhanced chemiluminescence assay; format: functional, cell-based; details: Oryctolagus cuniculus, 0.5 h
Neutrophil [6] = assay: Inhibition of immune complex-stimulated neutrophil oxidative metabolism in New Zealand white rabbit neutrophils assessed as ROS generation at 50 uM after 30 mins by luminol enhanced chemiluminescence assay; format: functional; details: Oryctolagus cuniculus, 0.5 h

Row | SMILES | inhibition at 50 µM (Neutrophil [1]) [%] | viability at 0.5 h, 50 µM [2] [%] | IC50 (Neutrophil [3]; read-out: IC50) [µM] | IC50 (Neutrophil [3]; read-out: pIC50 (converted)) [µM] | Activity [4] [%] | IC50 (Neutrophil [5]; read-out: IC50) [µM] | IC50 (Neutrophil [5]; read-out: pIC50 (converted)) [µM] | inhibition at 50 µM (Neutrophil [6]) [%]
1 | O=c1oc2ccc(O)cc2cc1-c1ccccc1O | 99.9 | 94.8 | 2.5 | 2.51 | 9.8 | 2.8 | 2.82 | 99
2 | O=c1oc2ccc(O)cc2cc1-c1ccc(O)c(O)c1 | 98.7 | 92.8 | 4.4 | 4.47 | 11.9 | 4.9 | 4.9 | 99.2
3 | O=c1oc2cc(O)c(O)cc2cc1-c1ccc(O)c(O)c1 | 94.9 | 92 | 5.2 | 5.25 | 10.5 | 13.4 | 13.5 | 92.4
4 | O=c1oc2cc(O)c(O)cc2cc1-c1ccc2c(c1)OCO2 | 99.6 | 93.2 | 0.7 | 0.724 | 15.3 | 0.7 | – | 99.8
5 | COC(=O)Oc1cccc(-c2cc3cc(OC(=O)OC)ccc3oc2=O)c1 | 82.1 | 94 | 6.9 | 6.92 | 9.3 | 21.7 | 21.9 | 66.3
6 | O=c1oc2ccc(O)cc2cc1-c1ccccc1 | 83.5 | 92.3 | 8 | 7.94 | 10.7 | > 50 | – | 21.8
7 | COC(=O)Oc1ccc2oc(=O)c(-c3ccc4c(c3)OCO4)cc2c1 | 68 | 95.5 | 5.4 | 5.37 | 11.4 | > 50 | – | 13.7
8 | COC(=O)Oc1cc2cc(-c3ccc4c(c3)OCO4)c(=O)oc2cc1OC(=O)OC | 99 | 95 | 0.7 | 0.692 | 11.9 | 0.7 | 0.661 | 99.4
9 | O=c1oc2ccccc2cc1-c1ccc2c(c1)OCO2 | 5.7 | 96 | > 50 | – | 11.9 | > 50 | – | 10.1
10 | COC(=O)Oc1ccc2oc(=O)c(-c3ccccc3)cc2c1 | 80.5 | 93.8 | 7.4 | 7.41 | 11.3 | 31.2 | 30.9 | 50.5
11 | O=c1oc2ccc(O)cc2cc1-c1cccc(O)c1 | 94.1 | 93.8 | 5.2 | 5.25 | 11.2 | > 50 | – | 31.7
12 | COC(=O)Oc1ccc(-c2cc3cc(OC(=O)OC)c(OC(=O)OC)cc3oc2=O)cc1OC(=O)OC | 99.9 | 88.8 | 0.4 | 0.363 | 20.7 | 0.4 | 0.389 | 99.9
13 | O=c1oc2ccc(O)cc2cc1-c1ccc(O)cc1 | 95.7 | 89.5 | 4.3 | 4.37 | 18.3 | 29.6 | 29.5 | 69.8
14 | COC(=O)Oc1ccc2oc(=O)c(-c3ccc(OC(=O)OC)c(OC(=O)OC)c3)cc2c1 | 97.5 | 93.3 | 1.8 | 1.78 | 9.3 | 2 | 2.04 | 92.3
15 | COC(=O)Oc1ccc(-c2cc3cc(OC(=O)OC)ccc3oc2=O)cc1 | 92.5 | 92.5 | 4 | 3.98 | 11.6 | 27.4 | 27.5 | 60.3
16 | COC(=O)Oc1ccc2oc(=O)c(-c3ccccc3OC(=O)OC)cc2c1 | 96.5 | 90.3 | 2.6 | 2.57 | 14.6 | 2.9 | 2.88 | 94.6
17 | COC(=O)Oc1ccc2cc(-c3ccc4c(c3)OCO4)c(=O)oc2c1 | 67.1 | 94.3 | 7.3 | ≥ 7.24 | 13.8 | > 50 | – | 7.9
18 | O=c1oc2cc(O)ccc2cc1-c1ccc2c(c1)OCO2 | 79.4 | 94.3 | 8.6 | 8.51 | 11.1 | > 50 | – | 17.5
19 | O=c1oc2ccc(O)cc2cc1-c1ccc2c(c1)OCO2 | 83.5 | 93.8 | 5.6 | 5.62 | 9 | > 50 | – | 23.2
20 | O=c1oc2ccccc2cc1-c1ccccc1 | 27.9 | 90.3 | > 50 | – | 17.1 | > 50 | – | 9
21 | O=c1c(O)c(-c2ccc(O)c(O)c2)oc2cc(O)cc(O)c12 [QUERCETIN] | 99.9 | 93 | 4.7 | – | 10.9 | 2.4 | – | 99.9
